The term IC50 denotes the midpoint of a concentration-inhibition curve. Low values mean greater potency in that assay, high ones weaker potency in that assay.

Converted amounts (≈) assume the structure as drawn. A value given as a limit tells only on which side of the number the result lay.

This assay addresses T1, α-glucosidase.
T1 construct: gene MAL12; enzyme preparation
The assay is described as follows: p-NPG hydrolysis, absorbance […] nm. In kind it is biochemical. Particulars: p-NPG (50 μL of 3 mM), potassium phosphate pH 7.4, 37 °C, 1 h.
On to `O=c1cc(-c2ccc(O)cc2)oc2cc(O)cc(O)c12` [Apigenin], for which the half-maximal inhibitory concentration (IC50) was found to be 250.8 µg/mL (≈ 928 µM).

`Oc1cc(O)c2c(c1)O[C@H](c1ccc(O)c(O)c1)[C@H](O)C2` [Epicatechin] had an IC50 of more than 5000 µg/mL.

As for `COc1cc(-c2oc3cc(O)cc(O)c3c(=O)c2O)ccc1O` [Isorhamnetin], the “IC50” value worked out at 158.8 µg/mL (≈ 502 µM).

As for `O=c1cc(-c2ccc(O)c(O)c2)oc2cc(O)cc(O)c12` [Luteolin], the “IC50” value is 190.4 µg/mL (≈ 665 µM).
